Laboratory results reported in patent publication US9139587B2, “N1-pyrazolospiroketone acetyl-CoA carboxylase inhibitors” (Pfizer Inc., priority 2009, dated 2015).

Experiments:
[1] = target: T1, recombinant human ACC2 (rhACC2) (Homo sapiens, UniProt O00763, V2141I); experiment: recombinant hACC2 Transcreener assay (direct inhibition of ACC2 activity); type: biochemical; details: Transcreener ADP detection FP assay, 50 μM ATP, 30 μM acetyl-CoA, 50 min at 25° C.
T1 construct: a full length Cytomax clone of ACC2 was purchased from Cambridge Bioscience Limited; made in house; host or cells: CHO cells (tetracycline-induced, pcDNA5 FRT TO-TOPO)
T1 sequence (O00763 whole entry V2141I): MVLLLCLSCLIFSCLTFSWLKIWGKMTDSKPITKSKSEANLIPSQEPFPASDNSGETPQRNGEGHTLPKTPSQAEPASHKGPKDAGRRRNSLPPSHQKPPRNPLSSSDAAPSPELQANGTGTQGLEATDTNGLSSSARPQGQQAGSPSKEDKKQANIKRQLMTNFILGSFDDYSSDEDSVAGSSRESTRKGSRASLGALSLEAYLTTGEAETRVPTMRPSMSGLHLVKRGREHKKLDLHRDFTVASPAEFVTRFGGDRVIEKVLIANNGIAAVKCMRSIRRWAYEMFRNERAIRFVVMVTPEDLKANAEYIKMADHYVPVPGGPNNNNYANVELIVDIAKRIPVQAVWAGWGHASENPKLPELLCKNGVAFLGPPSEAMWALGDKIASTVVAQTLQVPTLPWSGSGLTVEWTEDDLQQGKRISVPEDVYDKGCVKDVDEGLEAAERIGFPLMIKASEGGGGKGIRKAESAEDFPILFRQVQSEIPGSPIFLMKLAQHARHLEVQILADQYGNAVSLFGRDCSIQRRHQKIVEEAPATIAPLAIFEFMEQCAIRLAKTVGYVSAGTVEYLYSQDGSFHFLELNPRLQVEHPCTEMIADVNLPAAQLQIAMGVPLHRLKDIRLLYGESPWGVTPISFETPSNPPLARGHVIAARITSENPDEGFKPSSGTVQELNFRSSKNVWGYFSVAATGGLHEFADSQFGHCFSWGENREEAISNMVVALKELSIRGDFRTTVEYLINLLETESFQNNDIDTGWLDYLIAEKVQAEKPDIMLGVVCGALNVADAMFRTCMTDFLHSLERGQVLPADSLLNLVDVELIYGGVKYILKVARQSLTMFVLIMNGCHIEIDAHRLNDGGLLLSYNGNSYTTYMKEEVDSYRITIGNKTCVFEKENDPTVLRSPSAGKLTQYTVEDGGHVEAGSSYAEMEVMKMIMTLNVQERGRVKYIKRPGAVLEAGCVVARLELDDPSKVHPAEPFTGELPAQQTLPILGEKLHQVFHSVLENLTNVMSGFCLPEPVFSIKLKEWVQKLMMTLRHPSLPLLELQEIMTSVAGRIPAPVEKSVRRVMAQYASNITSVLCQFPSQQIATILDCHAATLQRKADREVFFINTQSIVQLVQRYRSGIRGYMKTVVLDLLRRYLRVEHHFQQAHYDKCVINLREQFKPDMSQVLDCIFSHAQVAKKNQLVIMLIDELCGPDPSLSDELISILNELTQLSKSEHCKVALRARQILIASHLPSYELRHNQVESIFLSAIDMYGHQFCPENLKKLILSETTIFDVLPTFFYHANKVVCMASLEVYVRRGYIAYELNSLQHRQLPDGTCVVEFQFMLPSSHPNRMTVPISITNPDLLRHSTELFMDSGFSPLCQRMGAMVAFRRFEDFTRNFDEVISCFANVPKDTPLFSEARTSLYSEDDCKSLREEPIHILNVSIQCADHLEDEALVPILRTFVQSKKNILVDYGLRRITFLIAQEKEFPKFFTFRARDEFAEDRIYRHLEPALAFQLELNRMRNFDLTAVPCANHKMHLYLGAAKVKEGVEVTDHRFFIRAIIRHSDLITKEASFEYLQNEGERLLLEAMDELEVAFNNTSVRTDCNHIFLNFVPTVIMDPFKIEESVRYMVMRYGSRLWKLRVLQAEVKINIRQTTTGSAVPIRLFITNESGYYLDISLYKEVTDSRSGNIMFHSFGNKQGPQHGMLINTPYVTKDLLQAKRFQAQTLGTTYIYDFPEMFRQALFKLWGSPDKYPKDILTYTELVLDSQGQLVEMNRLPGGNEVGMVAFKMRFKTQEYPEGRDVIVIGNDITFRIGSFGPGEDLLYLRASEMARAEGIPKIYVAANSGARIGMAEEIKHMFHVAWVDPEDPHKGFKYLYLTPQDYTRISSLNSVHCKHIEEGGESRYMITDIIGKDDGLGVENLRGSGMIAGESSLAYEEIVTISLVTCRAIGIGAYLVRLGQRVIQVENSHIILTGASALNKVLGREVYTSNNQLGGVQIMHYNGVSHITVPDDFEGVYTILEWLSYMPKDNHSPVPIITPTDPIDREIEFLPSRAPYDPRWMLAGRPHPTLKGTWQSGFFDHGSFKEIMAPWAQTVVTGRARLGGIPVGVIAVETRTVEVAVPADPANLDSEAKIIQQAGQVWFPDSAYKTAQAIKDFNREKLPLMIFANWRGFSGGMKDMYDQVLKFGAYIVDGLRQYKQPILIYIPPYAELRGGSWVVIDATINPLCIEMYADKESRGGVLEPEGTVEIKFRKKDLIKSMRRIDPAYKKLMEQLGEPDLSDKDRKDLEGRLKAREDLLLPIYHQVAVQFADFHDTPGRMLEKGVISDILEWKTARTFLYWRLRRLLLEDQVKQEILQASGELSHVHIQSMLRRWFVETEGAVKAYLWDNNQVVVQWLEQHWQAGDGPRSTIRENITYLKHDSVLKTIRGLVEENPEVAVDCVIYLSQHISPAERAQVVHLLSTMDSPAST
How it was run: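 Full-length human ACC2 was expressed in CHO cells and avidin-purified. ADP formation was measured by Transcreener FP in 50 mM HEPES pH 7.2 with 30 μM acetyl-CoA, 50 μM ATP, 8 mM KHCO3 and 5 mM citrate. Reactions ran 50 min at 25 °C with 1% DMSO, then 1 h with stop/detect reagent.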

[2] = target: T2, recombinant human ACC1 (rhACC1) (Homo sapiens, UniProt Q13085, DEL44-44); experiment: recombinant hACC1 Transcreener assay (direct inhibition of ACC1 activity); type: biochemical; details: Transcreener ADP detection FP assay, 50 μM ATP, 30 μM acetyl-CoA, 120 min at 25° C.
T2 construct: recombinant baculovirus containing full length human ACC1 cDNA; made in house; host or cells: SF9 insect cells (baculovirus)
How it was run: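 Full-length human ACC1 from baculovirus-infected SF9 cells, dephosphorylated with lambda phosphatase. Reaction in 50 mM HEPES pH 7.2 with 30 μM acetyl-CoA, 50 μM ATP, 10 mM KHCO3, 120 min at 25° C; ADP detected by Transcreener fluorescence polarisation.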

Row | SMILES | IC50 [1] | IC50 [2]
1 | CC(C)n1ncc2c1C(=O)C(C)C1(CCN(C(=O)c3ccc4[nH]ncc4c3)CC1)C2 (single isomer, unassigned; (+)) [Example 5A-1, (+)-1′-(1H-indazole-5-carbonyl)-1-isopropyl-6-methyl-4,6-dihydrospiro[indazole-5,4′-piperidin]-7(1H)-one] | 866 nM | 4480 nM
2 | Cc1nn(C)c(C(=O)N2CCC3(CC2)CC(=O)c2c(cnn2C(C)(C)C)C3)c1O [Example 11A-25] | 745 nM | 331 nM
3 | CC(C)(C)n1nc(C#N)c2c1C(=O)CC1(CCN(C(=O)c3ccc4[nH]ncc4c3)CC1)C2 [Example 2A-77] | 1300 nM | 6160 nM
4 | CC(C)n1ncc2c1C(=O)CC1(CCN(C(=O)c3cnc4ccnn4c3N)CC1)C2 [Example 2A-40] | 116 nM | 262 nM
5 | CC(C)n1ncc2c1C(=O)CC1(CCN(C(=O)c3ccc4c(cnn4C)c3)CC1)C2 [Example 2A-11] | 33.5 nM | 261 nM
6 | Cc1nc2c(F)cc(C(=O)N3CCC4(CC3)CC(=O)c3c(cnn3C(C)(C)C)C4)cc2[nH]1 [Example 2A-55] | 105 nM | 266 nM
7 | Cc1cccn2cc(C(=O)N3CCC4(CC3)CC(=O)c3c(cnn3C(C)C)C4)nc12 [Example 11A-14] | 253 nM | 418 nM
8 | CC(C)n1ncc2c1C(=O)CC1(CCN(C(=O)c3ccc4c(c3)ncn4C)CC1)C2 [Example 11A-55] | 60.4 nM | 213 nM
9 | CC(C)(C)n1ncc2c1C(=O)CC1(CCN(C(=O)c3ccnc(-c4cc[nH]n4)c3)CC1)C2 [Example 11A-26] | 41.5 nM | 130 nM
10 | CC(C)(C)n1ncc2c1C(=O)CC1(CCN(C(=O)c3cc(Cl)c4[nH]ncc4c3)CC1)C2 [Example 2A-25] | 22.7 nM | 69.5 nM
11 | Cc1ccc(O)c(C(=O)N2CCC3(CC2)CC(=O)c2c(cnn2C(C)(C)C)C3)n1 [Example 11A-44] | 4600 nM | 4170 nM
12 | Cc1nc2c(Cl)cc(C(=O)N3CCC4(CC3)CC(=O)c3c(cnn3C(C)(C)C)C4)cc2[nH]1 [Example 2A-53] | 17.2 nM | 39.6 nM
13 | CNc1nc(C)ccc1C(=O)N1CCC2(CC1)CC(=O)c1c(cnn1C(C)C)C2 [Example 11A-46] | 97.1 nM | 391 nM
14 | CC(C)(C)n1ncc2c1C(=O)CC1(CCN(C(=O)c3cc(Cl)c4nc[nH]c4c3)CC1)C2 [Example 2A-48] | 17.2 nM | 51.1 nM
15 | CC(C)n1ncc2c1C(=O)CC1(CCN(C(=O)c3nn(-c4ccccc4)nc3N)CC1)C2 [Example 11A-6] | 459 nM | 989 nM
16 | Cc1cc(C(=O)N2CCC3(CC2)CC(=O)c2c(cnn2CC(C)C)C3)ccc1Cl [Example 2A-5] | 481 nM | 1220 nM
17 | Cc1nn(C(C)C)c2c1CC1(CCN(C(=O)c3ccc4[nH]cnc4c3)CC1)CC2=O [Example 7A-1, 1′-(1H-benzo[d]imidazole-5-carbonyl)-1-isopropyl-3-methyl-4,6-dihydrospiro[indazole-5,4′-piperidin]-7(1H)-one] | 39.8 nM | 63.2 nM
18 | CC(C)(C)n1ncc2c1C(=O)CC1(CCN(C(=O)c3cccc(-c4cc[nH]n4)c3)CC1)C2 [Example 11A-23] | 20.4 nM | 87.1 nM
19 | CC(C)n1ncc2c1C(=O)C(C)(C)C1(CCN(C(=O)c3ccc4[nH]ncc4c3)CC1)C2 [Example 6A-1, 1′-(1H-indazole-5-carbonyl)-1-isopropyl-6,6-dimethyl-4,6-dihydrospiro[indazole-5,4′-piperidin]-7(1H)-one] | 373 nM | 1530 nM
20 | CC(C)(C)n1ncc2c1C(=O)CC1(CCN(C(=O)c3c[nH]c4ncccc34)CC1)C2 [Example 11A-19] | 71.6 nM | 242 nM
21 | Cc1noc(-c2cc(C(=O)N3CCC4(CC3)CC(=O)c3c(cnn3C(C)C)C4)ccn2)n1 [Example 2A-60] | 3990 nM | 8240 nM
22 | CC(C)n1ncc2c1C(=O)CC1(CCN(C(=O)c3ccc(-n4ccnc4)cn3)CC1)C2 [Example 11A-63] | 2550 nM | 8720 nM
23 | CC(C)n1ncc2c1C(=O)CC1(CCN(C(=O)c3cccnc3C(N)=O)CC1)C2 [Example 11A-10] | 789 nM | 6670 nM
24 | CCn1ncc2c1C(=O)CC1(CCN(C(=O)c3ccc(Cl)c(C)c3)CC1)C2 [Example 2A-7] | 965 nM | 4340 nM
25 | CC(C)n1ncc2c1C(=O)CC1(CCN(C(=O)c3cc(F)c4[nH]ncc4c3)CC1)C2 [Example 2A-37] | 34.5 nM | 87.4 nM
26 | CC(C)n1ncc2c1C(=O)CC1(CCN(C(=O)c3ccc4cc[nH]c(=O)c4c3)CC1)C2 [Example 2A-13] | 28 nM | 95.3 nM
27 | CC(C)n1ncc2c1C(=O)CC1(CCN(C(=O)c3cn4ccccc4n3)CC1)C2 [Example 11A-28] | 391 nM | 917 nM
28 | CC(C)n1ncc2c1C(=O)CC1(CCN(C(=O)c3cnc4[nH]cnc4c3)CC1)C2 [Example 11A-33] | 93.1 nM | 272 nM
29 | CC(C)(C)n1ncc2c1C(=O)CC1(CCN(C(=O)c3cccc(-c4ncc[nH]4)c3)CC1)C2 [Example 11A-64] | 24.4 nM | 105 nM

Continued by falling IC50 [1], values first:

Row | IC50 [1] | IC50 [2] | SMILES
30 | 13200 nM | 16400 nM | Cc1cc(C(=O)N2CCC3(CC2)CC(=O)c2c(cnn2C(C)(C)C)C3)n(-c2cccnc2)n1 [Example 11A-5]
31 | 1030 nM | 2170 nM | Cc1cc(C(=O)N2CCC3(CC2)CC(=O)c2c(cnn2C(C)(C)C)C3)c(N)c(C)n1 [Example 11A-38]
32 | 766 nM | 1300 nM | Cc1nc2ccc(C(=O)N3CCC4(CC3)CC(=O)c3c(cnn3C3COC3)C4)cc2[nH]1 [Example 2A-42]
33 | 653 nM | 799 nM | CC(C)n1ncc2c1C(=O)CC1(CCN(C(=O)c3cc4[nH]ccn4n3)CC1)C2 [Example 2A-67]
34 | 155 nM | 646 nM | Cc1cc(C(=O)N2CCC3(CC2)CC(=O)c2c(cnn2C2CCC2)C3)ccc1Cl [Example 1A-3]
35 | 96.4 nM | 155 nM | CC(C)(C)n1ncc2c1C(=O)CC1(CCN(C(=O)c3ccn4cncc4c3)CC1)C2 [Example 11A-32]
36 | 81.3 nM | 69 nM | CC(C)(C)n1ncc2c1C(=O)CC1(CCN(C(=O)c3cnc4[nH]cnc4c3)CC1)C2 [Example 11A-39]
37 | 69.2 nM | 115 nM | Cn1ncc2c(N)c(C(=O)N3CCC4(CC3)CC(=O)c3c(cnn3C(C)(C)C)C4)cnc21 [Example 2A-59]
38 | 30.1 nM | 122 nM | CC(C)n1ncc2c1C(=O)CC1(CCN(C(=O)c3cccc(-c4ncc[nH]4)c3)CC1)C2 [Example 11A-41]
39 | 25.4 nM | 74.7 nM | CC(C)n1ncc2c1C(=O)CC1(CCN(C(=O)c3cccc(-c4c[nH]cn4)c3)CC1)C2 [Example 11A-3]
40 | 23.3 nM | 32.3 nM | CC(C)(C)n1ncc2c1C(=O)CC1(CCN(C(=O)c3cnc4[nH]ccc4c3)CC1)C2 [Example 2A-23]
41 | 19.3 nM | 54.2 nM | Cc1nc2c(Cl)cc(C(=O)N3CCC4(CC3)CC(=O)c3c(cnn3C(C)C)C4)cc2[nH]1 [Example 2A-52]
42 | 15.1 nM | 31.2 nM | CC(C)(C)n1ncc2c1C(=O)CC1(CCN(C(=O)c3cc(Cl)c4[nH]c(=O)[nH]c4c3)CC1)C2 [Example 2A-56]
43 | 9.81 nM | 24.1 nM | CC(C)(C)n1ncc2c1C(=O)CC1(CCN(C(=O)c3ccc4[nH]c(=O)[nH]c4c3)CC1)C2 [Example 2A-29]
